What was measured:
B6 mice = experiment: Experimental autoimmune encephalomyelitis (EAE), animal model of multiple sclerosis; assay type: in vivo; settings: orally, 100 mg/kg, twice/day
Method: Six groups of B6 mice were immunized with MOG/CFA and injected with pertussis toxin to induce experimental autoimmune encephalomyelitis (EAE), an animal model of Multiple sclerosis. […] Another three groups of mice were treated with vehicle, Compound A or Compound B starting on the day of EAE onset (day 15) (orally, 100 mg/kg, twice/day). […] The results are shown in FIG. 1, wherein mean clinical score is a mean of clinical evaluation of each animal for that particular day. Animals are scored as follows: • 0 no clinical signs of EAE (no paralysis) • 1—paralysis of tail • 2—paralysis of tail and partial hind leg paralysis • 3—paralysis of tail And complete hind leg paralysis • 4—paralysis of tail, complete hind leg paralysis and a partial front leg paralysis • 5—moribund animal (all four limbs paralyzed, lack of responsiveness, these mice were immediately euthanized).

Adult male Wistar rats [1] = experiment: Transient middle cerebral artery occlusion (tMCAO); assay type: in vivo
Method: Adult male Wistar rats (Charles River, Wilmington, Mass.) 290-310 g were anesthetized with 3% isoflurane in 70% nitrous oxide and 30% oxygen through a nose cone. Temperature was maintained at 37° C. throughout the surgery using a heating lamp. Transient MCAO was induced for 90 min using the intraluminal suture method (see Longa, E. L. et al., 1989 Stroke 20:294-297). Briefly, an 18 mm length of 4-0 monofilament nylon suture coated with 0.1% poly-L-lysine (Belayev, L. et al, 1996 Stroke 27:1616-1623) and a flame-rounded tip was inserted into the external carotid artery and advanced through the internal carotid to occlude the origin of the middle cerebral artery (MCAO). Ninety minutes later the rats were re-anesthetized and the suture was withdrawn. Rats were sacrificed at 72 hrs post-MCAO.
Behavioral score: Animals are tested for motor deficits using a modified Bederson score. Briefly, animals are tested for flexion of the contralateral forelimb, twisting of the torso, decreased resistance to lateral push, circling to the contralateral side when holding the tail, and spontaneous circling. Each animal is scored 1 point for each behavior detected for a total of 5 points. Each animal is score at 90 min, just prior to reperfusion, at 24 hrs, 48 hrs and 72 hrs following MCAO.
Body weight is taken prior to MCAO surgery for baseline and 24 hrs, 48 hrs and 72 hrs after MCAO.
(§1) After sacrifice, the brains are extracted and placed in a rat brain matrix and 2 mm coronal slabs are taken from 4 mm caudal to the frontal pole and extending to the hindbrain. Sections are immersed in the active mitochondrial stain TTC at 37° C. for 10 min to delineate the lesion. Digitized sections are collected on the MCID image analysis system (Imaging Research, Inc. Ontario, Canada), area measurements are determined and a total lesion volume is calculated (area×distance in mm).

[2] = system: Primary dopaminergic neurons; experiment: MPP+ exposure in dopaminergic neurons (3H-dopamine uptake); assay type: cell-based, rat; settings: 10 μM MPP+ for 60 minutes, read 24 hours later
Method: Primary dopaminergic neurons were isolated from E15 rat embryos as described in Pong K., et al., (1997) J. Neurochem. 69 986-994. Briefly, the ventral mesencephalon was isolated and tissue was pooled in ice-cold phosphate buffer saline (PBS) without Ca^2+ and Mg^2+. The tissue was transferred to an enzymatic dissociation media containing 20 IU/ml papain in Earle's balanced salt solution (Worthington Biochemical, Freehold, N.J.) and incubated for 30 minutes at 37° C. After enzymatic dissociation, the papain solution was aspirated and the tissue mechanically triturated with a fire-polished Pasteur pipette in complete media [Neurobasal Medium with B-27 supplement (Gibco, Grand Island, N.Y.), penicillin/streptomycin, aphidicolin, glutamate] containing 2,000 IU/ml DNase and 10 mg/ml ovomucoid protease inhibitor. Single-cell suspensions in complete media were plated on pre-coated poly-L-ornithine/laminin 24-well plates (Becton-Dickinson, Bedford, Mass.) at a density of 5.0×10^5 cells/well. […]
Cultures were treated with various concentrations of Compound A and GDNF (glial-cell line derived neurotrophic factor, a positive control) hours before exposure to the neurotoxin MPP^+, the toxic metabolite of MPTP. […] Dopaminergic neuron viability was determined 24 hours later by measuring ^3H-dopamine uptake as described in Pong et al., 1997, supra.

[3] = system: Primary cerebellar granule neurons; experiment: Oxygen-glucose deprivation (OGD) in cultured neurons; assay type: cell-based, rat; settings: various concentrations, added 60 minutes before OGD; 2 hours OGD, read 24 hours later
Method: Primary cerebellar granule neurons were isolated from P5-8 rat pups. Briefly, cerebelli were collected and pooled in ice-cold phosphate buffer saline (PBS) without Ca^2+ and Mg^2+. The tissue was finely chopped and transferred to an enzymatic dissociation media containing 20 IU/ml papain in Earle's balanced salt solution (Worthington Biochemical, Freehold, N.J.) and incubated for 30 minutes at 37° C. After enzymatic dissociation, the papain solution was aspirated and the tissue mechanically triturated with a fire-polished Pasteur pipette in complete media [Neurobasal Medium with B-27 supplement (Gibco, Grand Island, N.Y.), penicillin/streptomycin, aphidicolin, glutamate, potassium chloride] containing 2,000 IU/ml DNase and 10 mg/ml ovomucoid protease inhibitor. Single-cell suspensions in complete media were plated on pre-coated poly-L-ornithine/laminin 24-well plates (Becton-Dickinson, Bedford, Mass.) at a density of 5.0×10^5 cells/well. Cells were maintained for two weeks prior to experimentation.
Cultures were treated with Compound A at various concentrations, 60 minutes before OGD. Media was removed and replaced with deoxygenated buffer in an anaerobic chamber (80% nitrogen, 10% hydrogen, 10% carbon dioxide gas mixture). […] Cell death was determined by measuring lactate dehydrogenase release into the media 24 hours later (Roche Biochemicals). […]

Adult male Wistar rats [4] = experiment: Permanent middle cerebral artery occlusion (pMCAO); assay type: in vivo; settings: dosed four times; 72 hours post ischemia
Method: Adult male Wistar rats (Charles River, Wilmington, Mass.) 270-300 g were anesthetized with 3% isoflurane in 70% nitrous oxide and 30% oxygen through a nose cone. Temperature was maintained at 37° C. throughout the surgery using a heating lamp. Permanent occlusion of MCAO was induced by electrocauterization of the distal portion of the MCA (via a craniotomy) with a 120 min ligation of both carotid arteries to interrupt collateral circulation (see Chen, S. T., et al, 1986 Stroke 17:738-743). Rats were sacrificed 72 hours post ischemia for measurement of infarct volume.
as §1

[5] = 10 mg/kg and 30 mg/kg four times

Cc1cccc(C)c1CS(=O)(=O)NCCc1c(CCCc2ccc(C(=O)O)cc2)c2cc(Cl)ccc2n1C(c1ccccc1)c1ccccc1 [Example 52, 4-{3-[1-benzhydryl-5-chloro-2-(2-{[(2,6-dimethylbenzyl)-sulfonyl]amino}ethyl)-1H-indol-3-yl]propyl}benzoic acid]
EAE clinical score: prevention of EAE (B6 mice; from the day of immunization): prevent EAE | EAE clinical score: clinical severity of EAE (B6 mice; starting on the day of EAE onset (day 15)): reduce clinical severity of EAE | behavioral deficits (modified Bederson score) (Adult male Wistar rats [1]; [5]): effectively reduced behavioral deficits | weight loss following MCAO (Adult male Wistar rats [1]; [5]): reduced weight loss | infarct volume (Adult male Wistar rats [1]; 10 mg/kg or 30 mg/kg four times (90 min, […], 24 hr, 48 hr post occlusion)): significant level of neuroprotection | therapeutically relevant window of opportunity (Adult male Wistar rats [1]; 30 mg/kg 3 times, first dose 4 or 6 hrs post occlusion, measuring infarct volume and neurological deficits): at least 6 hrs | significant treatment window (Adult male Wistar rats [1]; 30 mg/kg 3 times, first dose 4 or 6 hrs post occlusion, measuring weight loss): 4 h | dopaminergic neuron viability (3H-dopamine uptake) [2]: effective to protect dopaminergic neuron viability against MPP^+ | OGD-induced cell death (lactate dehydrogenase release) [3]: effective in protecting cultured neurons from OGD-induced cell death | infarct volume (Adult male Wistar rats [4]): significantly reduces infarct volume

Source: US7605156B2, “Methods for the use of inhibitors of cytosolic phospholipase A2” (Wyeth, priority 2001, dated 2009)
